One test deals with B16 cells. The test can be described thus: Tumor growth inhibitory action test using cancer models in mice (B16 cells). Format: in vivo. To be noted: C57BL/6N mouse, B16 cells intradermal; 100 mg/kg/day oral once a day, day 0 to day 10; average of 9 mice per group; read-out: Tumor tissue weight inhibition rate (%). Here is the method: A tumor growth inhibitory action test of the compounds of the present invention was performed using a tumor growth model in mice, which is one of the widely-used methods of evaluating in vivo anticancer effects of drugs.
As one of the widely-used methods of evaluating anticancer effects of drugs, a tumor growth inhibitory action test using cancer models in mice has been reported in Cancer Res., 59, 5209-5218 (1999). According to the method described in the above-mentioned document, a tumor growth inhibitory action test of the compounds of the present invention was performed, the tumor tissue weight inhibition rate was calculated, and the anticancer effect of each of the compounds of the present invention was evaluated using the obtained rate as an index.
A 1% aqueous methyl cellulose solution was added to each test compound to suspend it with a sonicator, whereby a 10 mg/mL test compound suspension was prepared.
Physiological saline was added to B16 cells, whereby a 3.3×10^7 cells/mL B16 cell suspension was prepared.
• 1) The back of each mouse (female, 6 weeks of age, C57BL/6N mouse) was depilated using a depilatory under Nembutal anesthesia. • 2) Several days after the depilation, the B16 cell suspension (300 μL) was injected intradermally into the back of the mouse under Nembutal anesthesia. • 3) From the B16 cell injection day (i.e. on day 0) to day 10, the test compound suspension (100 mg/kg/day) was orally administered once a day consecutively. • 4) Ten days after the injection of the cells, the mouse was euthanized with CO2 gas. • 5) A tumor tissue was enucleated from the mouse, and the weight of the tumor tissue was measured with an electronic balance. • 6) A test was performed in the same manner as in 1) to 5) except that the 1% aqueous methyl cellulose solution was used instead of the test compound suspension, and the result was used as a control. (Calculation of Tumor Tissue Weight Inhibition Rate)
A tumor tissue weight inhibition rate (the average of 9 mice per group), which was used as an index of anticancer effect, was calculated according to the following calculation equation. Tumor tissue weight inhibition rate (%)=100−(Mx/Mo)×100 (Calculation Equation) Mo: Tumor tissue weight of control group Mx: Tumor tissue weight of test compound solution administration group (Test Results and Discussion)

Test [1] has as its system adjuvant arthritis models in rats. Put plainly: Paw edema inhibitory action test using adjuvant arthritis models in rats. In kind it is in vivo. To be noted: 504 h; Lewis rat, adjuvant-untreated (secondary inflammation) paw, day 21; 10 mg/kg/day oral once a day, day 0 to day 20; average of 8 rats per group; read-out: Paw edema inhibition rate (%). Here is the method: A paw edema inhibitory action test of the compounds of the present invention was performed using an adjuvant arthritis model in rats, which is one of the widely-used methods of evaluating in vivo antiarthritis effects of drugs.
As one of the widely-used methods of evaluating antiarthritic effects of drugs, a paw edema inhibitory action test using adjuvant arthritis models in rats is known. Accordingly, a paw edema inhibitory action test of the compounds of the present invention was performed, the paw edema inhibition rate was calculated, and the antiarthritic effect of each of the compounds of the present invention was evaluated using the obtained rate as an index.
A 1% aqueous methyl cellulose solution was added to each test compound to suspend it, whereby a 2 mg/mL test compound suspension was prepared.
Liquid paraffin was added to Mycobacterium butyricum to suspend it, whereby 6 mg/mL adjuvant was prepared.
• 1) The adjuvant (0.1 mL) was injected subcutaneously into a left hind paw sole of each rat (male, 9 weeks of age, Lewis rat) to induce arthritis. • 2) From the adjuvant injection day (i.e. on day 0) to day 20, the test compound suspension (10 mg/kg/day) was orally administered once a day consecutively. • 3) On the adjuvant injection day, day 1, day 4, day 7, day 11, day 14, day 18 and day 21, each paw volume of both hind paws was measured with a plethysmometer. • 4) A test was performed in the same manner as in 1) to 3) except that the 1% aqueous methyl cellulose solution was used instead of the test compound suspension, and the result was used as a control. (Method of Evaluation)
Each paw edema inhibition rate of paw edema in an adjuvant-untreated paw (secondary inflammation paw) in each test compound administration group to paw edema in a secondary inflammation paw in a control group was calculated, and the antiarthritic effect of each of the compounds of the present invention was evaluated using the obtained rate as an index.
The paw edema rate was calculated according to the following calculation equation 1, and then the paw edema inhibition rate (the average of 8 rats per group), which was used as an index of the antiarthritic effect, was calculated according to the calculation equation 2. Paw edema rate (%)=(Paw volume after adjuvant treatment/paw volume before adjuvant treatment)×100 (Calculation Equation 1) Paw edema inhibition rate (%)=100−{(Sx−100)/(So−100)}×100 (Calculation Equation 2) So: Paw edema rate of control group Sx: Paw edema rate of test compound suspension administration group (Test Results and Discussion)

Here are results for nine compounds from US7544703B2, “Cyclic compound having 4-pyridylalkylthio group having substituted or unsubstituted amino group introduced therein” (Santen Pharmaceutical Co., Ltd., priority 2004, dated 2009).

Counter-ions that a name gives are not always drawn.

`CC(=O)Nc1cc(CSc2ncccc2C(=O)Nc2ccc(Cl)cc2)ccn1` [Compound 4-10, 2-(2-Acetylaminopyridin-4-ylmethylthio)-N-(4-chlorophenyl)pyridine-3-carboxamide]: in the test on B16 cells, the inhibition in vivo at 100 mg/kg/day turned out to be 75%. Besides, the inhibition in vivo at 10 mg/kg/day in test [1] turned out to be 71%.
As for `CC(=O)Nc1cc(CSc2ncccc2C(=O)Nc2ccc(OC(F)(F)F)cc2)ccn1` [Compound 4-11, 2-(2-Acetylaminopyridin-4-ylmethylthio)-N-(4-trifluoromethoxyphenyl)pyridine-3-carboxamide], the inhibition in vivo at 100 mg/kg/day in the test with B16 cells was found to be 86%. For the same compound, in test [1], the inhibition in vivo at 10 mg/kg/day was 65%.
The corresponding values for `CC(=O)Nc1cc(CSc2ncccc2C(=O)Nc2cc(C)cc(C)c2)ccn1` [Compound 4-1, 2-(2-Acetylaminopyridin-4-ylmethylthio)-N-(3,5-dimethylphenyl)pyridine-3-carboxamide] are 75% and 90%.
In the same order, the values of `Cc1cc(C)cc(NC(=O)c2cccnc2SCc2ccnc(N)c2)c1` [Compound 3-1, 2-(2-Aminopyridin-4-ylmethylthio)-N-(3,5-dimethylphenyl)pyridine-3-carboxamide monohydrochloride] are 70% and 48%.
In the same order, the values of `CC(=O)OCC(=O)Nc1cc(CSc2ncccc2C(=O)Nc2cc(C)cc(C)c2)ccn1` [Compound 10-1, 2-(2-Acetoxyacetylaminopyridin-4-ylmethylthio)-N-(3,5-dimethylphenyl)pyridine-3-carboxamide] are 54% and 59%.
`CNC(=O)Nc1cc(CSc2ncccc2C(=O)Nc2cc(C)cc(C)c2)ccn1` [Compound 9-1, N-(3,5-Dimethylphenyl)-2-[2-(N′-methylureido)pyridin-4-ylmethylthio]pyridine-3-carboxamide]: in the test with B16 cells, the inhibition in vivo at 100 mg/kg/day is 43%. Besides, in test [1], the inhibition in vivo at 10 mg/kg/day was determined as 55%.
In the case of `Nc1cc(CSc2ncccc2C(=O)Nc2ccc(OC(F)(F)F)cc2)ccn1` [Compound 3-10, 2-(2-Aminopyridin-4-ylmethylthio)-N-(4-trifluoromethoxyphenyl)pyridine-3-carboxamide], the inhibition in vivo at 100 mg/kg/day in the test with B16 cells turned out to be 85%. In test [1], the inhibition in vivo at 10 mg/kg/day is 35%.
For `CNc1cc(CSc2ncccc2C(=O)Nc2ccc(OC(F)(F)F)cc2)ccn1` [Compound 3-8, 2-(2-Methylaminopyridin-4-ylmethylthio)-N-(4-trifluoromethoxyphenyl)pyridine-3-carboxamide monohydrochloride], in the test with B16 cells, the inhibition in vivo at 100 mg/kg/day amounted to 80%. In addition, the inhibition in vivo at 10 mg/kg/day in test [1] is 30%.
As to `O=C(CO)Nc1cc(CSc2ncccc2C(=O)Nc2ccc(OC(F)(F)F)cc2)ccn1` [Compound 12-1, 2-(2-Hydroxyacetylaminopyridin-4-ylmethylthio)-N-(4-trifluoromethoxyphenyl)pyridine-3-carboxamide], the inhibition in vivo at 100 mg/kg/day with B16 cells is 85%. Besides, the inhibition in vivo at 10 mg/kg/day in test [1] is 48%.
